Target: T1, Recombinant Human Histamine H4 Receptor (Homo sapiens, UniProt Q9H3N8)
T1 construct: expressed in transfected cells; host or cells: SK-N-MC cells or COS7 cells, transiently transfected; cell membranes used
Assay: Binding Assay on Recombinant Human Histamine H4 Receptor
Conditions: competition binding with 3H-histamine, membranes of SK-N-MC or COS7 cells expressing human histamine H4 receptor; Ki by Cheng-Prusoff (KD 5 nM, ligand 5 nM); average of results obtained
Text: Additional examples of embodiments of this invention are provided by hemitartrate salts of compounds of Formula (I) and by hydrates, such as monohydrates and dihydrates, of compounds of Formula (I). […]

SMILES	Ki [nM]
Cc1nc(NCCCC2CCN(C)CC2)ncc1-c1nc2c(C)c(F)ccc2[nH]1 [Example 1, [5-(5-Fluoro-4-methyl-1H-benzoimidazol-2-yl)-4-methyl-pyrimidin-2-yl]-[3-(1-methyl-piperidin-4-yl)-propyl]-amine]	21
Cc1nc(NCCCC2CCN(C)CC2)ncc1-c1nc2c(C)cc(F)cc2[nH]1 [Example 3, [5-(6-Fluoro-4-methyl-1H-benzoimidazol-2-yl)-4-methyl-pyrimidin-2-yl]-[3-(1-methyl-piperidin-4-yl)-propyl]-amine]	4
Cc1ccc2[nH]c(-c3cnc(NCCCC4CCN(C)CC4)nc3C)nc2c1C [Example 5, [5-(4,5-Dimethyl-1H-benzoimidazol-2-yl)-4-methyl-pyrimidin-2-yl]-[3-(1-methyl-piperidin-4-yl)-propyl]-amine]	4
Cc1nc(NCCCC2CCN(C)CC2)ncc1-c1nc2c(F)cc(F)cc2[nH]1 [Example 6, [5-(4,6-Difluoro-1H-benzoimidazol-2-yl)-4-methyl-pyrimidin-2-yl]-[3-(1-methyl-piperidin-4-yl)-propyl]-amine]	17
Cc1cc(C)c2nc(-c3cnc(N(C)CCCC4CCN(C)CC4)nc3C)[nH]c2c1 [Example 7, [5-(4,6-Dimethyl-1H-benzoimidazol-2-yl)-4-methyl-pyrimidin-2-yl]-methyl-[3-(1-methyl-piperidin-4-yl)-propyl]-amine]	83
CCc1nc(NCCCC2CCN(C)CC2)ncc1-c1nc2c(F)c(F)ccc2[nH]1 [Example 9, [5-(4,5-Difluoro-1H-benzoimidazol-2-yl)-4-ethyl-pyrimidin-2-yl]-[3-(1-methyl-piperidin-4-yl)-propyl]-amine]	210
CCCc1nc(NCCCC2CCN(C)CC2)ncc1-c1nc2c(F)c(C)ccc2[nH]1 [Example 10, [5-(4-Fluoro-5-methyl-1H-benzoimidazol-2-yl)-4-propyl-pyrimidin-2-yl]-[3-(1-methyl-piperidin-4-yl)-propyl]-amine]	470
Cc1ccc2[nH]c(-c3cnc(NCCCC4CCN(C)CC4)nc3C(C)C)nc2c1C [Example 11, [5-(4,5-Dimethyl-1H-benzoimidazol-2-yl)-4-isopropyl-pyrimidin-2-yl]-[3-(1-methyl-piperidin-4-yl)-propyl]-amine]	360
Cc1cc(C)c2nc(-c3cnc(NCCCC4CCN(C)CC4)nc3C(C)C)[nH]c2c1 [Example 12, [5-(4,6-Dimethyl-1H-benzoimidazol-2-yl)-4-isopropyl-pyrimidin-2-yl]-[3-(1-methyl-piperidin-4-yl)-propyl]-amine]	200
CN1CCC(CCCNc2ncc(-c3nc4c(F)c(F)ccc4[nH]3)c(C3CCC3)n2)CC1 [Example 14, [4-Cyclobutyl-5-(4,5-difluoro-1H-benzoimidazol-2-yl)-pyrimidin-2-yl]-[3-(1-methyl-piperidin-4-yl)-propyl]-amine]	1010
Cc1c(F)ccc2[nH]c(-c3cnc(NCCCC4CCN(C)CC4)nc3)nc12 [Example 15, [5-(5-Fluoro-4-methyl-1H-benzoimidazol-2-yl)-pyrimidin-2-yl]-[3-(1-methyl-piperidin-4-yl)-propyl]-amine]	290
Cc1c(F)ccc2[nH]c(-c3cnc(NCCCC4CCN(C)CC4)nc3C3CCC3)nc12 [Example 16, [4-Cyclobutyl-5-(5-fluoro-4-methyl-1H-benzoimidazol-2-yl)-pyrimidin-2-yl]-[3-(1-methyl-piperidin-4-yl)-propyl]-amine]	1470
Cc1cc(C)c2nc(-c3cnc(NCCCC4CCN(C)CC4)nc3C3CCC3)[nH]c2c1 [Example 17, [4-Cyclobutyl-5-(4,6-dimethyl-1H-benzoimidazol-2-yl)-pyrimidin-2-yl]-[3-(1-methyl-piperidin-4-yl)-propyl]-amine]	1320
CCCc1nc(NCCCC2CCN(C)CC2)ncc1-c1nc2c(C)c(C)ccc2[nH]1 [Example 18, [5-(4,5-Dimethyl-1H-benzoimidazol-2-yl)-4-propyl-pyrimidin-2-yl]-[3-(1-methyl-piperidin-4-yl)-propyl]-amine]	2410
Cc1nc(NCCCC2CCN(C)CC2)ncc1-c1nc2ccccc2[nH]1 [Example 22, [5-(1H-Benzoimidazol-2-yl)-4-methyl-pyrimidin-2-yl]-[3-(1-methyl-piperidin-4-yl)-propyl]-amine]	110
Cc1nc(NCCCC2CCN(C)CC2)ncc1-c1nc2cc(C(C)(C)C)ccc2[nH]1 [Example 25, [5-(5-tert-Butyl-1H-benzoimidazol-2-yl)-4-methyl-pyrimidin-2-yl]-[3-(1-methyl-piperidin-4-yl)-propyl]-amine]	13
Cc1c(F)ccc2[nH]c(-c3cnc(NCCCC4CCN(C)CC4)nc3C(F)(F)F)nc12 [Example 27, [5-(5-Fluoro-4-methyl-1H-benzoimidazol-2-yl)-4-trifluoromethyl-pyrimidin-2-yl]-[3-(1-methyl-piperidin-4-yl)-propyl]-amine]	92
Cc1cc(F)cc2[nH]c(-c3cnc(NCCCC4CCN(C)CC4)nc3C(F)(F)F)nc12 [Example 28, [5-(6-Fluoro-4-methyl-1H-benzoimidazol-2-yl)-4-trifluoromethyl-pyrimidin-2-yl]-[3-(1-methyl-piperidin-4-yl)-propyl]-amine]	62
Cc1ccc2[nH]c(-c3cnc(NCCCC4CCN(C)CC4)nc3C(F)(F)F)nc2c1C [Example 30, [5-(4,5-Dimethyl-1H-benzoimidazol-2-yl)-4-trifluoromethyl-pyrimidin-2-yl]-[3-(1-methyl-piperidin-4-yl)-propyl]-amine]	230
CN1CCC(CCCNc2ncc(-c3nc4cc(F)c(F)cc4[nH]3)c(C(F)(F)F)n2)CC1 [Example 31, [5-(5,6-Difluoro-1H-benzoimidazol-2-yl)-4-trifluoromethyl-pyrimidin-2-yl]-[3-(1-methyl-piperidin-4-yl)-propyl]-amine]	230
Cc1ccc2[nH]c(-c3cnc(NCCCC4CCN(C)CC4)cn3)nc2c1C [Example 34, [5-(4,5-Dimethyl-1H-benzoimidazol-2-yl)-pyrazin-2-yl]-[3-(1-methyl-piperidin-4-yl)-propyl]-amine]	680
Cc1nc(NCCCC2CCN(C)CC2)ncc1-c1nc2c(C(F)(F)F)cc(C(F)(F)F)cc2[nH]1 [Example 35, [5-(4,6-Bis-trifluoromethyl-1H-benzoimidazol-2-yl)-4-methyl-pyrimidin-2-yl]-[3-(1-methyl-piperidin-4-yl)-propyl]-amine]	11
Cc1nc(NCCCC2CCN(C)CC2)ncc1-c1nc2cc(C#N)ccc2[nH]1 [Example 36, 2-{4-Methyl-2-[3-(1-methyl-piperidin-4-yl)-propylamino]-pyrimidin-5-yl}-1H-benzoimidazole-5-carbonitrile]	170

The remaining lines, values ahead:

Ki [nM]	SMILES
11	Cc1cc(C)c2nc(-c3cnc(NCCCC4CCN(C)CC4)nc3C)[nH]c2c1 [Example 2, [5-(4,6-Dimethyl-1H-benzoimidazol-2-yl)-4-methyl-pyrimidin-2-yl]-[3-(1-methyl-piperidin-4-yl)-propyl]-amine]
11	Cc1nc(NCCCC2CCN(C)CC2)ncc1-c1nc2c(F)c(F)ccc2[nH]1 [Example 4, [5-(4,5-Difluoro-1H-benzoimidazol-2-yl)-4-methyl-pyrimidin-2-yl]-[3-(1-methyl-piperidin-4-yl)-propyl]-amine]
430	Cc1ccc2[nH]c(-c3cnc(NCCCC4CCN(C)CC4)nc3C3CCC3)nc2c1C [Example 13, [4-Cyclobutyl-5-(4,5-dimethyl-1H-benzoimidazol-2-yl)-pyrimidin-2-yl]-[3-(1-methyl-piperidin-4-yl)-propyl]-amine]
230	Cc1c(F)ccc2[nH]c(-c3cnc(NCCCC4CCN(C)CC4)nc3C(C)C)nc12 [Example 20, [5-(5-Fluoro-4-methyl-1H-benzoimidazol-2-yl)-4-isopropyl-pyrimidin-2-yl]-[3-(1-methyl-piperidin-4-yl)-propyl]-amine]
27	Cc1nc(NCCCC2CCN(C)CC2)ncc1-c1nc2c(C)cccc2[nH]1 [Example 21, [4-Methyl-5-(4-methyl-1H-benzoimidazol-2-yl)-pyrimidin-2-yl]-[3-(1-methyl-piperidin-4-yl)-propyl]-amine]
59	Cc1nc(NCCCC2CCN(C)CC2)ncc1-c1nc2cc(F)ccc2[nH]1 [Example 23, [5-(5-Fluoro-1H-benzoimidazol-2-yl)-4-methyl-pyrimidin-2-yl]-[3-(1-methyl-piperidin-4-yl)-propyl]-amine]
12	Cc1nc(NCCCC2CCN(C)CC2)ncc1-c1nc2cc(C(F)(F)F)ccc2[nH]1 [Example 24, [3-(1-Methyl-piperidin-4-yl)-propyl]-[4-methyl-5-(5-trifluoromethyl-1H-benzoimidazol-2-yl)-pyrimidin-2-yl]-amine]
13	Cc1nc(NCCCC2CCN(C)CC2)ncc1-c1nc2c(C)c(Cl)ccc2[nH]1 [Example 26, [5-(5-Chloro-4-methyl-1H-benzoimidazol-2-yl)-4-methyl-pyrimidin-2-yl]-[3-(1-methyl-piperidin-4-yl)-propyl]-amine]
35	CN1CCC(CCCNc2ncc(-c3nc4c(Cl)cc(Cl)cc4[nH]3)c(C(F)(F)F)n2)CC1 [Example 29, [5-(4,6-Dichloro-1H-benzoimidazol-2-yl)-4-trifluoromethyl-pyrimidin-2-yl]-[3-(1-methyl-piperidin-4-yl)-propyl]-amine]
6110	CC(C)c1nc(NCCCC2CCN(C)CC2)ncc1-c1nc2c(F)c(F)ccc2[nH]1 [Example 32, [5-(4,5-Difluoro-1H-benzoimidazol-2-yl)-4-isopropyl-pyrimidin-2-yl]-[3-(1-methyl-piperidin-4-yl)-propyl]-amine]
250	Cc1c(F)ccc2[nH]c(-c3cnc(NCCCC4CCN(C)CC4)cn3)nc12 [Example 33, [5-(5-Fluoro-4-methyl-1H-benzoimidazol-2-yl)-pyrazin-2-yl]-[3-(1-methyl-piperidin-4-yl)-propyl]-amine]

Source: patent US9365548B2, “Benzoimidazol-2-yl pyrimidines and pyrazines as modulators of the histamine H4 receptor” (Janssen Pharmaceutica NV, priority 2006, dated 2016)
